In test [1] the test system is T. gondii proliferation (RH-YFP2 parasites in HFF). Description: High Content Imaging (HCI) assay of T. gondii proliferation in HFF. Conditions: for inhibition at 10 µM / IC50 / inhibition at 20 µM: Toxoplasma gondii; for SI selectivity index: CV50/IC50: CV50 (HFF)/IC50 (T. gondii); for Parasite proliferation inhibition (PPI): tested at 10 μM, HFF infected with T. gondii, normalised to DMSO and 20 μM pyrimethamine.
Procedure: The parasites were collected just after host cell lysis, centrifuged at 800 g for 5 min, suspended in D10 medium, and counted.
A pyrimethamine (Sigma-Aldrich) stock solution was prepared at 10 mM in DMSO and was used at the final concentration of at 20 μM as a positive control for anti-Toxoplasma activity. Forty-six molecules were tested to determine their anti-Toxoplasma activity. Each molecule was prepared as a 10 mM stock solution in DMSO and tested at 10 μM. The hits were then further tested at the dilutions 0.01 to 100 μM.
(§1) Cells were seeded at a density of 1.10^4 cells per well into 96-well plates, and allowed to grow for 48 h at 37°C and 5% CO2 to obtain sub-confluent HFF monolayers. Cells were then infected with 4.10^4 parasites per well. The plates were centrifuged for 1 min at 200 g and placed at 37°C, 5% CO2, for 2 h. After 3 washes in PBS, infected cells were incubated at 37°C, 5% CO2, for 30 hours with 200 μL of DMEM complete medium alone or supplemented with anti-Toxoplasma molecules, i.e. the reference drug pyrimethamine, or the tested molecules. These tested drugs were incubated at 10 μM in screening hit assays.
Imaging of 96-well plates was performed using a high content imaging system (Olympus ScanR). […] Twenty fields per well were imaged.
The acquired images were analyzed using the ScanR analysis software. This analysis aimed to identify the parasitophorous vacuoles (V), the parasites’ nuclei (P) and host cells’ nuclei (C).
A fixed threshold was set up (Fig 1C) and a watershed algorithm was applied to split apart two vacuoles that associated with one another (Fig 1C, white arrow). A binary mask was obtained (Fig 1D) and objects on the image border were excluded. Segmentation of the parasites’ nuclei (Fig 1E–1G, arrowhead) was performed with the Hoechst fluorescence pixels (Fig 1E). In order to properly separate parasites’ nuclei one from another, an important rolling ball background subtraction filter was applied (5 pixels). Both the brightness and the contrast of filtered images were adjusted manually. Parasites were selected with an edge segmentation algorithm with a minimum object size of 10 pixels and a maximum object size of 30 pixels (Fig 1F). The obtained binary image allowed a clear detection of the parasites (Fig 1G).
The vacuole mask was merged with that of the parasites to identify parasites inside their parasitophorous vacuole and to exclude extracellular parasites or host cell nuclei (Fig 1H).

Test [2] concerns Human foreskin fibroblasts (HFF) host cells. Description: Host cell viability in the HCI assay (host cell nuclei count). The note with it: 0.037 to 81 μM, 30 h.
Procedure: as §1
• the T. gondii infection rate (V/C), calculated as the ratio between the number of parasitophorous vacuoles per well (V) divided by the number of host cells per well (C); • the T. gondii proliferation index (P/V), calculated as the ratio between the number of parasites per well (P) divided by the number of parasitophorous vacuoles per well; • the intra-vacuolar distribution of parasites (percentage of parasitophorous vacuoles containing either 1, 2, 4, or 8 parasites); • the parasite proliferation inhibition (PPI), calculated with the following formula: PPI=(1−((P/V[mol]−P/V[Pyr])/(P/V[DMSO]−P/V[Pyr])))x100 where P/V[Pyr] was the average proliferation rate of Toxoplasma in the presence of 20 μM pyrimethamine, P/V[DMSO], the average proliferation rate of Toxoplasma in the presence of DMSO only and P/V[mol], the average proliferation rate of Toxoplasma in the presence of the tested molecule; • the cell viability (CV): (C [mol] / C[DMSO])x100, where C[mol] was the number of host cell nuclei per well containing the tested molecule and C[DMSO], the number of host cell nuclei per well containing the DMSO control.
A selectivity index activity (SI) was calculated as SI = CV50/IC50.
The subject of another test is RH-YFP2 parasites in HFF. Description: [3H]-uracil incorporation assay of T. gondii proliferation. It counts as cell-based. The note with it: Toxoplasma gondii; 20 μM pyrimethamine, 30 h in HFF; 100% proliferation = without pyrimethamine; 3 experiments; read-out: inhibition of parasite proliferation as determined by [3H]-uracil incorporation assay. On the procedure: The intracellular growth of RH-YFP2 parasites in HFF was monitored by selective incorporation of [^3H]-uracil, as previously described. […] After several washes to eliminate extracellular parasites, infected cells were cultured for 30 h with […] of [^3H]-uracil per well. Monolayers were washed 3 times in phosphate buffered saline (PBS), disrupted with 500 μL of lysis/scintillation solution (Optiphase Supermix, Perkin Elmer, France) and their radioactivity was measured by liquid scintillation counting using a Wallac MicroBeta TriLux (Perkin Elmer) calibrated for [^3H]-uracil. Two experimental replicates were performed in each of the 3 separate experiments.

The test system of test [3] is Toxoplasma gondii parasites in HFF. Description: Manual microscopic counting of T. gondii proliferation. The note with it: 30 h, read-out: inhibition of parasite proliferation as determined by manual microscopic observations.
Procedure: as §1
Parasitophorous vacuoles, parasites and host cells were manually counted on the set of images provided by the Olympus IX81 microscope. Three different experiments were performed.
After 30 h of parasite culture in HFF, the total numbers of parasitophorous vacuoles and parasites were counted in wells with or without 20 μM pyrimethamine from 3 different experiments. The 100% proliferation corresponds to the number of parasites per well without pyrimethamine.
The mark [4] stands for this setting: 30 h, read-out: Parasite proliferation inhibition (PPI).
[5] abbreviates: 30 h, read-out: IC50: concentration to inhibit 50% of T. gondii proliferation.

Each structure is given as a SMILES string. Like-named read-outs stand apart in the source and are kept apart here.

From PMC6115017, “High-content imaging assay to evaluate Toxoplasma gondii infection and proliferation: A multiparametric assay to screen new compounds” (PLoS ONE, 2018) come the findings set out here.

Consider `O=C1/C(=C/c2ccc(Br)cc2)Oc2cc(O)cc(O)c21` [AU7], for which the inhibition at 10 µM in test [1] (setting [4]) came out at 0%.

Take `COc1cccc(OC)c1/C=C/C(=O)c1c(OC)cccc1OC` [CH1]: in test [1] (setting [4]), the inhibition at 10 µM came out at 0%.

`COc1cccc(OC)c1/C=C/C(=O)c1ccccc1` [CH4]: in test [1] (setting [4]), the inhibition at 10 µM worked out at 29%.

For `COc1ccc(C(=O)/C=C/c2ccc(OC)c(OC)c2)c(O)c1` [CH5], the inhibition at 10 µM in test [1] (setting [4]) was 3%.

For the molecule `COc1ccc(C(=O)/C=C/c2cc(OC)c(OC)c(OC)c2)c(O)c1` [CH9], the “SI selectivity index: CV50/IC50” value in test [1] is on record as greater than 12.3. Also, the IC50 in test [1] (setting [5]) was 6600 ± 1500 nM. Besides, the inhibition at 10 µM in test [1] (setting [4]) worked out at 93%. Besides, the “Parasite proliferation inhibition (PPI)” value in test [1] (30 h) is “high proliferation inhibition activity”. The “CV50: concentration to inhibit the viability of 50% of host cells” value in test [2] was greater than 81 µM.

For `COc1cc(/C=C/C(=O)c2ccc(OC)cc2O)cc(OC)c1` [CH12], the inhibition at 10 µM in test [1] (setting [4]) was found to be 73%.

As for `COc1ccc(-c2nnc(-c3ccccc3OC)o2)cc1` [DO3], the “SI selectivity index: CV50/IC50” value in test [1] is greater than 3. The IC50 in test [1] (setting [5]) came out at 27700 ± 6200 nM. Further, the inhibition at 10 µM in test [1] (setting [4]) came out at 81%. Also, the “Parasite proliferation inhibition (PPI)” value in test [1] (30 h) is “high proliferation inhibition activity”. Moreover, the “CV50: concentration to inhibit the viability of 50% of host cells” value in test [2] was greater than 81 µM.

As to `COc1ccc(-c2nnc(-c3ccc(OC)cc3)o2)cc1` [DO4], the inhibition at 10 µM in test [1] (setting [4]) turned out to be 0%.

Regarding `COc1ccccc1-c1nnc(-c2ccccc2)o1` [DO6], the inhibition at 10 µM in test [1] (setting [4]) was determined as 0%.

In the case of `COc1ccc(-c2nnc(-c3ccccc3)o2)c(OC)c1` [DO8], the inhibition at 10 µM in test [1] (setting [4]) was found to be 0%.

Take `c1ccc(-c2nnc(-c3ccccc3)o2)cc1` [DO9]: the inhibition at 10 µM in test [1] (setting [4]) came out at 0%.

Take `Oc1ccc(-c2nnc(-c3ccccc3)o2)cc1` [DO10]: the inhibition at 10 µM in test [1] (setting [4]) is 0%.

On to `Oc1ccc(-c2nnc(-c3ccccc3)o2)c(O)c1` [DO11], for which the inhibition at 10 µM in test [1] (setting [4]) is 0%.

For `Oc1ccccc1-c1nnc(-c2ccccc2)o1` [DO12], the inhibition at 10 µM in test [1] (setting [4]) was 5%.

`Oc1ccc(-c2nnc(-c3ccc(O)cc3O)o2)cc1` [DO13]: the inhibition at 10 µM in test [1] (setting [4]) stood at 0%.

As to `Oc1ccc(-c2nnc(-c3ccc(O)cc3)o2)cc1` [DO14], the inhibition at 10 µM in test [1] (setting [4]) was 0%.

As for `CCc1nc(N)nc(N)c1-c1ccc(Cl)cc1` [pyrimethamine, reference compound], the inhibition at 20 µM turned out to be 43.2% in the test on RH-YFP2 parasites in HFF; 100% in test [1] (setting [4]); 25.2% in test [1] (30 h, read-out: inhibition of parasite proliferation as determined by HCI); 25% in test [3]. In addition, the “SI selectivity index: CV50/IC50” value in test [1] is given as greater than 202. The IC50 in test [1] (24 h, read-out: IC50 of pyrimethamine, reproducibility) is 600 nM; in test [1] (setting [5]), 400 ± 30 nM; in test [1] (72 h, read-out: IC50 of pyrimethamine, reproducibility), 440 nM. In test [2], the “CV50: concentration to inhibit the viability of 50% of host cells” value is greater than 81 µM.
